Source: the OligoGym collection
HELM strings list units from the 5' end as sugar, base in round brackets, then linkage (d deoxyribose, r ribose, m 2'-O-methyl, p phosphodiester). Strings are as the collection lists them; they lack the last nucleoside at the 3' end of the tested compound. [moe] = 2'-O-(2-methoxyethyl) (MOE); [sp] = phosphorothioate linkage; [m5C] = 5-methylcytosine

Molecular target: SCN2A
Experiment: mouse, dose not given
Settings: ASO

Row | Substance | 3 h FOB score [score 0-7]
1 | RNA1{[moe](T)[sp].[moe](A)p.[moe](T)p.[moe](T)p.d(T)[sp].d(T)[sp].d(A)[sp].d(T)[sp].d(A)[sp].d(A)[sp].d(A)[sp].d(T)[sp].d(G)[sp].d([m5C])[sp].[moe]([m5C])p.[moe](G)p.[moe](A)p.[moe]([m5C])[sp].[moe](T)}$$$$ (last 3' nucleoside missing) | 2.67
2 | RNA1{[moe](T)[sp].[moe](A)p.[moe](T)p.[moe](T)p.d(T)[sp].d(T)[sp].d(T)[sp].d([m5C])[sp].d(T)[sp].d(A)[sp].d([m5C])[sp].d(A)[sp].d([m5C])[sp].d(T)[sp].[moe](G)p.[moe]([m5C])p.[moe](T)p.[moe](G)[sp].[moe]([m5C])}$$$$ (last 3' nucleoside missing) | 0
3 | RNA1{[moe](T)[sp].[moe](G)p.[moe](A)p.[moe]([m5C])p.[moe]([m5C])p.[moe](A)p.d([m5C])[sp].d(G)[sp].d([m5C])[sp].d(T)[sp].d(T)[sp].d(A)[sp].d([m5C])[sp].d(A)[sp].d(T)[sp].d([m5C])[sp].[moe](A)p.[moe](A)[sp].[moe](A)}$$$$ (last 3' nucleoside missing) | 1
4 | RNA1{[moe](T)[sp].[moe](G)p.[moe](G)p.[moe](A)p.[moe]([m5C])p.[moe]([m5C])p.d(G)[sp].d(T)[sp].d([m5C])[sp].d(T)[sp].d([m5C])[sp].d(T)[sp].d(T)[sp].d(T)[sp].d([m5C])[sp].d(T)[sp].[moe](T)p.[moe](A)[sp].[moe](T)}$$$$ (last 3' nucleoside missing) | 0
5 | RNA1{[moe](T)[sp].[moe](G)p.[moe](G)p.[moe](A)p.[moe]([m5C])p.d([m5C])[sp].d(G)[sp].d(T)[sp].d([m5C])[sp].d(T)[sp].d([m5C])[sp].d(T)[sp].d(T)[sp].d(T)[sp].d([m5C])[sp].[moe](T)p.[moe](T)p.[moe](A)[sp].[moe](T)}$$$$ (last 3' nucleoside missing) | 1
6 | RNA1{[moe](T)[sp].[moe](G)p.[moe](G)p.[moe](G)p.[moe](T)p.d([m5C])[sp].d(T)[sp].d([m5C])[sp].d(T)[sp].d(T)[sp].d(A)[sp].d(G)[sp].d([m5C])[sp].d(T)[sp].d(T)[sp].[moe](T)p.[moe]([m5C])p.[moe](T)[sp].[moe]([m5C])}$$$$ (last 3' nucleoside missing) | 1.33
7 | RNA1{[moe](T)[sp].[moe](G)p.[moe](G)p.[moe]([m5C])p.[moe](T)p.d(A)[sp].d(T)[sp].d(A)[sp].d([m5C])[sp].d(T)[sp].d([m5C])[sp].d(A)[sp].d(T)[sp].d(T)[sp].d(G)[sp].[moe]([m5C])p.[moe](T)p.[moe]([m5C])[sp].[moe](T)}$$$$ (last 3' nucleoside missing) | 1
8 | RNA1{[moe](T)[sp].[moe](G)p.[moe](T)p.[moe](A)p.[moe](A)p.[moe]([m5C])p.d([m5C])[sp].d(T)[sp].d(T)[sp].d(T)[sp].d(A)[sp].d(T)[sp].d(A)[sp].d([m5C])[sp].d(A)[sp].d(T)[sp].[moe](T)p.[moe](T)[sp].[moe](A)}$$$$ (last 3' nucleoside missing) | 0
9 | RNA1{[moe](T)[sp].[moe](G)p.[moe](T)p.[moe](A)p.[moe](A)p.d([m5C])[sp].d([m5C])[sp].d(T)[sp].d(T)[sp].d(T)[sp].d(A)[sp].d(T)[sp].d(A)[sp].d([m5C])[sp].d(A)[sp].[moe](T)p.[moe](T)p.[moe](T)[sp].[moe](A)}$$$$ (last 3' nucleoside missing) | 0
10 | RNA1{[moe](T)[sp].[moe](G)p.[moe](T)p.[moe](A)p.d(A)[sp].d([m5C])[sp].d([m5C])[sp].d(T)[sp].d(T)[sp].d(T)[sp].d(A)[sp].d(T)[sp].d(A)[sp].d([m5C])[sp].[moe](A)p.[moe](T)p.[moe](T)p.[moe](T)[sp].[moe](A)}$$$$ (last 3' nucleoside missing) | 0
11 | RNA1{[moe](T)[sp].[moe](G)p.[moe](T)p.[moe](T)p.[moe](T)p.d(G)[sp].d(G)[sp].d(G)[sp].d(T)[sp].d([m5C])[sp].d(T)[sp].d([m5C])[sp].d(T)[sp].d(T)[sp].d(A)[sp].[moe](G)p.[moe]([m5C])p.[moe](T)[sp].[moe](T)}$$$$ (last 3' nucleoside missing) | 2.33
12 | RNA1{[moe](T)[sp].[moe](G)p.[moe]([m5C])p.[moe](A)[sp].d(T)[sp].d(G)[sp].d(T)[sp].d(A)[sp].d(A)[sp].d([m5C])[sp].d([m5C])[sp].d(T)[sp].[moe](T)p.[moe](T)p.[moe](A)p.[moe](T)[sp].[moe](A)}$$$$ (last 3' nucleoside missing) | 0
13 | RNA1{[moe](T)[sp].[moe](G)p.[moe]([m5C])p.[moe](A)p.[moe](T)[sp].d(G)[sp].d(T)[sp].d(A)[sp].d(A)[sp].d([m5C])[sp].d([m5C])[sp].d(T)[sp].d(T)[sp].[moe](T)p.[moe](A)p.[moe](T)[sp].[moe](A)}$$$$ (last 3' nucleoside missing) | 0
14 | RNA1{[moe](T)[sp].[moe](G)p.[moe]([m5C])p.[moe](A)p.[moe](T)p.[moe](A)p.d(A)[sp].d(T)[sp].d([m5C])[sp].d([m5C])[sp].d([m5C])[sp].d(A)[sp].d(T)[sp].d(T)[sp].d(A)[sp].d(T)[sp].[moe](A)p.[moe]([m5C])[sp].[moe](A)}$$$$ (last 3' nucleoside missing) | 0
15 | RNA1{[moe](T)[sp].[moe](G)p.[moe]([m5C])p.[moe](A)p.[moe](T)p.[moe](G)[sp].d(T)[sp].d(A)[sp].d(A)[sp].d([m5C])[sp].d([m5C])[sp].d(T)[sp].d(T)[sp].d(T)[sp].[moe](A)p.[moe](T)[sp].[moe](A)}$$$$ (last 3' nucleoside missing) | 0
16 | RNA1{[moe](T)[sp].[moe](G)p.[moe]([m5C])p.[moe](A)p.[moe](T)p.[moe](G)p.d(T)[sp].d(A)[sp].d(A)[sp].d([m5C])[sp].d([m5C])[sp].d(T)[sp].d(T)[sp].d(T)[sp].d(A)[sp].d(T)[sp].[moe](A)p.[moe]([m5C])[sp].[moe](A)}$$$$ (last 3' nucleoside missing) | 0
17 | RNA1{[moe](T)[sp].[moe](G)p.[moe]([m5C])p.[moe](A)p.[moe](T)p.d(A)[sp].d(A)[sp].d(T)[sp].d([m5C])[sp].d([m5C])[sp].d([m5C])[sp].d(A)[sp].d(T)[sp].d(T)[sp].d(A)[sp].[moe](T)p.[moe](A)p.[moe]([m5C])[sp].[moe](A)}$$$$ (last 3' nucleoside missing) | 0
18 | RNA1{[moe](T)[sp].[moe](G)p.[moe]([m5C])p.[moe](A)p.[moe](T)p.d(G)[sp].d(T)[sp].d(A)[sp].d(A)[sp].d([m5C])[sp].d([m5C])[sp].d(T)[sp].d(T)[sp].d(T)[sp].d(A)[sp].[moe](T)p.[moe](A)p.[moe]([m5C])[sp].[moe](A)}$$$$ (last 3' nucleoside missing) | 1
19 | RNA1{[moe](T)[sp].[moe](G)p.[moe]([m5C])p.[moe](A)p.d(T)[sp].d(A)[sp].d(A)[sp].d(T)[sp].d([m5C])[sp].d([m5C])[sp].d([m5C])[sp].d(A)[sp].d(T)[sp].d(T)[sp].[moe](A)p.[moe](T)p.[moe](A)p.[moe]([m5C])[sp].[moe](A)}$$$$ (last 3' nucleoside missing) | 0
